Results: US20230405003A1, “APPLICATION OF THYMIDINE DERIVATIVE IN PREPARATION OF DRUGS” (ONQUALITY PHARMACEUTICALS CHINA LTD., priority 2020, published 2023)

Tested on: HaCaT cells
Test: Relief of 5-FU proliferative toxicity to HaCaT cells (CCK-8 cell survival)
Format: cell-based
Settings: for activation at 1 µM: compound 1 μM; for activation at 5 µM: compound 5 μM; for activation at 10 µM: compound 10 μM; for activation at 50 µM: compound 50 μM; for activation at 100 µM: compound 100 μM; for activation at 200 µM: compound 200 μM; for activation at 500 µM: compound 500 μM; for activation at 1000 µM: compound 1000 μM; for Cell Survival Rate (increased percentage of cell survival compared with the Group of 5-FU): 5-Fu 20 μM, HaCaT cells
Protocol: The cultured skin cell HaCaTs were digested, counted, and inoculated into a 96-well plate with 5000-10000 cells in each well. After 24 h of culture, the wells were divided into Group of blank solvent control, Group of 5-FU, Group of 5-FU+thymidine derivative, Group of 5-FU+the combination of thymidine derivative and uridine derivative. […] adding a solution of 5-FU and a solution of thymidine derivative (the final concentrations of 5-FU and thymidine derivative are shown in Table 3, the solution of thymidine is an aqueous solution, while the solutions of thymidine derivatives are all DMSO solutions); Group of 5-FU+the combination of thymidine derivative and uridine derivative: adding a solution of 5-FU and a mixed solution of thymidine derivative and uridine derivative (the final concentrations of the solution of 5-FU and the mixed solution of thymidine derivative+uridine derivative are shown in Table 3, the solution of thymidine is an aqueous solution, while the mixed solutions of thymidine derivative+uridine derivative are all DMSO solutions); Group of blank solvent control: adding the same type of solution as those of the corresponding Group of 5-FU or Group of 5-FU+thymidine derivative (or the mixed solution of thymidine derivative+uridine derivative) in equal volume. Group of blank solvent control was used as control to exclude the influence of the solvents in Group of 5-FU and Group of 5-FU+thymidine derivative (or the mixed solution of thymidine derivative+uridine derivative) on the results. After additional 48 hours of culture, a Cell Counting Kit-8 (CCK-8) detection kit (C0037, purchased from Shanghai Beyotime Biotechnology) is used to determine the cell survival rate, thereby calculating the proliferative toxicity of 5-Fu/5-DFUR on cells and the relieving effect of the thymidine derivative (or the mixed solution of thymidine derivative+uridine derivative) on the proliferative toxicity. Using GraphPad Prism 6.0 software, the results were statistically analyzed by t-test and plotted.
(§1) Table 3 lists the combinations of 5-FU and thymidine derivative (or the mixed solution of thymidine derivative+uridine derivative), and the corresponding experimental results (wherein the data in the column of cell survival indicate the corresponding increased percentage of the cell survivals of Group of 5-FU+thymidine derivative or Group of 5-FU+the combination of thymidine derivative and uridine derivative compared with the Group of 5-FU). FIGS. 3-10 list the experimental results of several representative compounds.
The effect of thymidine derivative or a combination of thymidine derivative and uridine derivative on relieving the proliferative toxicity of a chemotherapeutical drug (5-FU) to HaCaT cells was tested according to the method in Examples 2-29. The test thymidine derivative or the combination of thymidine derivative and uridine derivative, as well as the final concentration of the test compounds were shown in Table 7.
as §1, with “7” for “3”, “15-21” for “3-10”, “exemplary” for “representative”

[1] = Homo sapiens, HaCaT, increase vs Group of 5-FU, 5-FU 20 μM, 48 h, read-out: Cell Survival Rate
[2] = selected compound final concentration 0.8 μM
[3] = selected compound final concentration 1.6 μM
[4] = selected compound final concentration 3.13 μM
[5] = selected compound final concentration 6.25 μM
[6] = selected compound final concentration 12.5 μM
[7] = selected compound final concentration 25 μM
[8] = selected compound final concentration 50 μM
[9] = selected compound final concentration 100 μM

Cc1cn([C@H]2C[C@H](OC(=O)C3CCCC3)[C@@H](COC(=O)C3CCCC3)O2)c(=O)[nH]c1=O [T8]
activation at 1 µM [1]: 15 to 25% | activation at 5 µM [1]: 27 to 37% | activation at 10 µM [1]: 35 to 45% | activation at 50 µM [1]: 32 to 39% | activation at 100 µM [1]: 40 to 47% | activation at 200 µM [1]: 3 to 9%

Cc1cn([C@H]2C[C@H](OC(=O)C3CC3)[C@@H](COC(=O)C3CC3)O2)c(=O)[nH]c1=O [T9]
activation at 1 µM [1]: -10 to -3% | activation at 10 µM [1]: 10 to 18% | activation at 50 µM [1]: 24 to 31% | activation at 200 µM [1]: 27 to 34% | activation at 500 µM [1]: 30 to 38% | activation at 1000 µM [1]: 35 to 40% | activation at 1500 µM (Homo sapiens, HaCaT, increase vs Group of 5-FU, 5-FU 20 μM, compound 1500 μM, 48 h, read-out: Cell Survival Rate): 13 to 20%

Cc1cn([C@H]2C[C@H](OC(=O)Cc3ccccc3)[C@@H](COC(=O)Cc3ccccc3)O2)c(=O)[nH]c1=O [T10]
activation at 1 µM [1]: 5 to 10% | activation at 2 µM (Homo sapiens, HaCaT, increase vs Group of 5-FU, 5-FU 20 μM, compound 2 μM, 48 h, read-out: Cell Survival Rate): 14 to 22% | activation at 5 µM [1]: 35 to 45% | activation at 10 µM [1]: 60 to 70% | activation at 20 µM (Homo sapiens, HaCaT, increase vs Group of 5-FU, 5-FU 20 μM, compound 20 μM, 48 h, read-out: Cell Survival Rate): 65 to 75% | activation at 50 µM [1]: 65 to 75%

Cc1cn([C@H]2C[C@H](O)[C@@H](COC(=O)OC3CC3)O2)c(=O)[nH]c1=O [T11]
activation at 1 µM [1]: -5 to 0% | activation at 5 µM [1]: 11 to 16% | activation at 10 µM [1]: 27 to 33% | activation at 50 µM [1]: 35 to 45% | activation at 100 µM [1]: 38 to 45% | activation at 200 µM [1]: 38 to 46% | activation at 500 µM [1]: 40 to 50% | activation at 1000 µM [1]: 7 to 14%

Cc1cn([C@H]2C[C@H](OC(=O)NC3CCCC3)[C@@H](COC(=O)NC3CCCC3)O2)c(=O)[nH]c1=O [T12]
activation at 1 µM [1]: 0 to 5% | activation at 10 µM [1]: 9 to 16%

Cc1cn([C@H]2C[C@H](OC(=O)C(C)C)[C@@H](COC(=O)C(C)C)O2)c(=O)[nH]c1=O [T13]
activation at 1 µM [1]: 15 to 25% | activation at 10 µM [1]: 40 to 50% | activation at 100 µM [1]: 25 to 35%

Cc1cn([C@H]2C[C@H](OC(=O)Oc3ccccc3)[C@@H](COC(=O)Oc3ccccc3)O2)c(=O)[nH]c1=O [T14]
activation at 1 µM [1]: 12 to 20% | activation at 10 µM [1]: 30 to 40% | activation at 100 µM [1]: 8 to 15%

Cc1cn([C@H]2C[C@H](OC(=O)NC3CC3)[C@@H](COC(=O)NC3CC3)O2)c(=O)[nH]c1=O [T15]
activation at 1 µM [1]: 13 to 20% | activation at 10 µM [1]: 13 to 20% | activation at 100 µM [1]: 20 to 30% | activation at 500 µM [1]: 25 to 35% | activation at 1000 µM [1]: 9 to 16%

Cc1cn([C@H]2C[C@H](OC(=O)Nc3ccccc3)[C@@H](COC(=O)Nc3ccccc3)O2)c(=O)[nH]c1=O [T16]
activation at 1 µM [1]: 0 to 5% | activation at 10 µM [1]: 7 to 14%

CC(=O)NC[C@H]1O[C@@H](n2cc(C)c(=O)[nH]c2=O)C[C@@H]1OC(C)=O [T17]
activation at 1 µM [1]: 15 to 25% | activation at 10 µM [1]: 18 to 26% | activation at 100 µM [1]: 25 to 35% | activation at 200 µM [1]: 30 to 40% | activation at 500 µM [1]: 35 to 45%

Cc1cn([C@H]2C[C@H](O)[C@@H](CO[Si](C)(C)C(C)(C)C)O2)c(=O)[nH]c1=O [T18]
activation at 1 µM [1]: 6 to 12% | activation at 10 µM [1]: 7 to 15%

Cc1cn([C@H]2C[C@H](O)[C@@H](COC(=O)OCc3ccccc3)O2)c(=O)[nH]c1=O [T19]
activation at 1 µM [1]: 35 to 45% | activation at 10 µM [1]: 60 to 70% | activation at 100 µM [1]: 58 to 67% | activation at 500 µM [1]: 35 to 45%

Cc1cn([C@H]2C[C@H](OC(=O)OCC(C)C)[C@@H](COC(=O)OCC(C)C)O2)c(=O)[nH]c1=O [T20]
activation at 1 µM [1]: 48 to 58% | activation at 10 µM [1]: 58 to 66% | activation at 100 µM [1]: 55 to 65%

Cc1cn([C@H]2C[C@H](OC(=O)OCC(C)(C)C)[C@@H](COC(=O)OCC(C)(C)C)O2)c(=O)[nH]c1=O [T21]
activation at 1 µM [1]: 5 to 13% | activation at 10 µM [1]: 19 to 26%

Cc1cn([C@H]2C[C@H](OC(=O)OC(C)C)[C@@H](COC(=O)OC(C)C)O2)c(=O)[nH]c1=O [T22]
activation at 1 µM [1]: 2 to 7% | activation at 10 µM [1]: 10 to 17% | activation at 100 µM [1]: 9 to 16%

Cc1cn([C@H]2C[C@H](OC(=O)OC(C)(C)C)[C@@H](COC(=O)OC(C)(C)C)O2)c(=O)[nH]c1=O [T23]
activation at 1 µM [1]: 2 to 7% | activation at 10 µM [1]: 5 to 11% | activation at 100 µM [1]: 20 to 26%

Cc1cn([C@H]2C[C@H](OC(=O)C(C)(C)C)[C@@H](COC(=O)C(C)(C)C)O2)c(=O)[nH]c1=O [T24]
activation at 1 µM [1]: 27 to 35% | activation at 10 µM [1]: 21 to 27%

Cc1cn([C@H]2C[C@H](O)[C@@H](COC(=O)[C@H](C)c3ccc(-c4ccccc4)c(F)c3)O2)c(=O)[nH]c1=O [T29]
Cell Survival Rate (increased percentage of cell survival compared with the Group of 5-FU) [2]: 19%-25% | Cell Survival Rate (increased percentage of cell survival compared with the Group of 5-FU) [3]: 19%-27% | Cell Survival Rate (increased percentage of cell survival compared with the Group of 5-FU) [4]: 35%-42% | Cell Survival Rate (increased percentage of cell survival compared with the Group of 5-FU) [5]: 43%-50% | Cell Survival Rate (increased percentage of cell survival compared with the Group of 5-FU) [6]: 69%-76% | Cell Survival Rate (increased percentage of cell survival compared with the Group of 5-FU) [7]: 54%-62% | Cell Survival Rate (increased percentage of cell survival compared with the Group of 5-FU) [8]: 48%-54%

Cc1cn([C@H]2C[C@H](O)[C@@H](COC(=O)C(C)c3ccc(CC(C)C)cc3)O2)c(=O)[nH]c1=O (some centres unmarked) [T30]
Cell Survival Rate (increased percentage of cell survival compared with the Group of 5-FU) [4]: 39%-47% | Cell Survival Rate (increased percentage of cell survival compared with the Group of 5-FU) [5]: 45%-53% | Cell Survival Rate (increased percentage of cell survival compared with the Group of 5-FU) [6]: 54%-61% | Cell Survival Rate (increased percentage of cell survival compared with the Group of 5-FU) [7]: 44%-51% | Cell Survival Rate (increased percentage of cell survival compared with the Group of 5-FU) [8]: 39%-46%

Cc1cn([C@H]2C[C@H](O)[C@@H](COC(=O)[C@@H](C)c3ccc(CC(C)C)cc3)O2)c(=O)[nH]c1=O [T31]
Cell Survival Rate (increased percentage of cell survival compared with the Group of 5-FU) [2]: 23%-30% | Cell Survival Rate (increased percentage of cell survival compared with the Group of 5-FU) [3]: 29%-38% | Cell Survival Rate (increased percentage of cell survival compared with the Group of 5-FU) [4]: 37%-43% | Cell Survival Rate (increased percentage of cell survival compared with the Group of 5-FU) [5]: 41%-47% | Cell Survival Rate (increased percentage of cell survival compared with the Group of 5-FU) [6]: 44%-51%

Cc1cn([C@H]2C[C@H](O)[C@@H](COC(=O)C3CCn4c(C(=O)c5ccccc5)ccc43)O2)c(=O)[nH]c1=O (some centres unmarked) [T34]
Cell Survival Rate (increased percentage of cell survival compared with the Group of 5-FU) [6]: 28%-35% | Cell Survival Rate (increased percentage of cell survival compared with the Group of 5-FU) [7]: 43%-51% | Cell Survival Rate (increased percentage of cell survival compared with the Group of 5-FU) [8]: 69%-77% | Cell Survival Rate (increased percentage of cell survival compared with the Group of 5-FU) [9]: 67%-74%

COc1ccc2c(c1)c(CC(=O)OC[C@H]1O[C@@H](n3cc(C)c(=O)[nH]c3=O)C[C@@H]1O)c(C)n2C(=O)c1ccc(Cl)cc1 [T38]
Cell Survival Rate (increased percentage of cell survival compared with the Group of 5-FU) [2]: 13%-21% | Cell Survival Rate (increased percentage of cell survival compared with the Group of 5-FU) [3]: 29%-38% | Cell Survival Rate (increased percentage of cell survival compared with the Group of 5-FU) [4]: 38%-47% | Cell Survival Rate (increased percentage of cell survival compared with the Group of 5-FU) [5]: 46%-55% | Cell Survival Rate (increased percentage of cell survival compared with the Group of 5-FU) [6]: 53%-60% | Cell Survival Rate (increased percentage of cell survival compared with the Group of 5-FU) [7]: 58%-65% | Cell Survival Rate (increased percentage of cell survival compared with the Group of 5-FU) [8]: 67%-75% | Cell Survival Rate (increased percentage of cell survival compared with the Group of 5-FU) [9]: 55%-63%
